# Data as given in patent US20100234430A1, “METHODS AND PHARMACEUTICAL FORMULATIONS FOR PROTECTING PHARMACEUTICAL COMPOUNDS FROM ACIDIC ENVIRONMENTS” (priority 2001, published 2010).
# How the values were obtained:
# [1] = Degradation of lansoprazole as a function of pH at 37 degrees C.; assay type: physicochemical; details: for half-life: buffer
# Description: For example, lansoprazole is a substituted benzimidaole that is an acid labile pharmaceutical compound that inhibits gastric acid secretions. The affect of gastric pH on the degradation of an acid-labile drug such as lansoprazole is conveyed in Table 1. The data shown in Table 1 was collected at 37 degrees C., wherein “K” reflects the first order degradation constant.
# [2] = Acid neutralization test of tablets, time for pH to rise to 7 (Example 1); assay type: physicochemical; details: 840 mg tablet, basket 75 rpm, 50 ml SGF + 50 ml water
# Protocol: 840 mg of each of magnesium hydroxide, tromethamine, and carbicarb were separately compressed into tablets utilizing a carver press having a 13 mm die at a 1 second dwell time and 500 pounds of compression force. Also, a first mixture containing 420 mg of magnesium hydroxide and 420 mg of tromethamine was also compressed into tablet-form using the method described above. Additionally, a second mixture containing 420 mg of magnesium hydroxide and 420 mg of carbicarb was compressed into tablet-form as previously described.
# Each of the five different preparations was tested separately in the following manner. Tablets of each preparation were placed in a USP dissolution apparatus basket which was then attached to a spindle. The stirring component of the apparatus was set to rotate the basket at a speed of approximately 75 rpm. The loaded, rotating basket was then immersed into a beaker containing 50 ml of SGF and 50 ml of distilled de-ionized water. The pH of the medium in the beaker was monitored continuously throughout the test procedure utilizing a micro pH electrode.
structure (smiles),measurement,setting,value
Cc1c(OCC(F)(F)F)ccnc1C[S+]([O-])c1nc2ccccc2[nH]1 (centres unmarked) [lansoprazole],half-life,"[1]; pH 5, 37 degrees C.",0.52 h
same,half-life,"[1]; pH 6, 37 degrees C.",3.4 h
same,half-life,"[1]; pH 7, 37 degrees C.",18 h
same,half-life,"[1]; pH 8, 37 degrees C.",37 h
same,half-life,"[1]; pH 9, 37 degrees C.",78 h
same,% Drug Remaining After 30 Minutes,"[1]; pH 5, 37 degrees C.",51.37%
same,K (first order degradation constant),"[1]; pH 5, 37 degrees C.",1.33 hr.^−1
same,% Drug Remaining After 30 Minutes,"[1]; pH 6, 37 degrees C.",90.30%
same,K (first order degradation constant),"[1]; pH 6, 37 degrees C.",0.20 hr.^−1
same,% Drug Remaining After 30 Minutes,"[1]; pH 7, 37 degrees C.",98.10%
same,K (first order degradation constant),"[1]; pH 7, 37 degrees C.",0.04 hr.^−1
same,% Drug Remaining After 30 Minutes,"[1]; pH 8, 37 degrees C.",99.10%
same,K (first order degradation constant),"[1]; pH 8, 37 degrees C.",0.02 hr.^−1
same,% Drug Remaining After 30 Minutes,"[1]; pH 9, 37 degrees C.",99.57%
same,K (first order degradation constant),"[1]; pH 9, 37 degrees C.",0.01 hr.^−1
[Mg+2].[OH-].[OH-] [Magnesium hydroxide],Time to Raise the pH of SGF to 7 at 37 degrees C.,[2],565 seconds
"NC(CO)(CO)CO [Tromethamine (TRIS), Tromethamine]",Time to Raise the pH of SGF to 7 at 37 degrees C.,[2],75 seconds
